The values below come from US8003797B2, “Pyridine carboxamide orexin receptor antagonists” (Merck Sharp & Dohme Corp., priority 2007, dated 2011).

pKi: −log10 of the molar value.

In the test the target is T1, OX2R (Homo sapiens, UniProt O43614).
T1 construct: expressed in transfected cells; host or cells: CHO cells (membranes)
T1 sequence (O43614 1-444): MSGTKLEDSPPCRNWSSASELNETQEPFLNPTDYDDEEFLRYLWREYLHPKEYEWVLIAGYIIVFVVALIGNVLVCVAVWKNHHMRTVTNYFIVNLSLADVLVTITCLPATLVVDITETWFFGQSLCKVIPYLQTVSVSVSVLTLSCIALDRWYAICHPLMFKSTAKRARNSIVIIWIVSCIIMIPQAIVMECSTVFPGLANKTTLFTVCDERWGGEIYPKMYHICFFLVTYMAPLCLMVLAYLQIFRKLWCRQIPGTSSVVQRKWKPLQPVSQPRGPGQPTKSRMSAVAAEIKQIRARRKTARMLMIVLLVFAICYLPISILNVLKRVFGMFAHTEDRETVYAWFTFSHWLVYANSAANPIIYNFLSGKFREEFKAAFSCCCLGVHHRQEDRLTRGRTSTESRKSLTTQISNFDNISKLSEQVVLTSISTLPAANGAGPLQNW
Put plainly: radioligand binding assay, OX2 receptor. Particulars: membranes prepared from CHO cells expressing the OX2 receptor. As for the experimental part:
In a typical experiment the OX1 and OX2 receptor antagonistic activity of the compounds of the present invention was determined in accordance with the following experimental method. For intracellular calcium measurements, Chinese hamster ovary (CHO) cells expressing the rat orexin-1 receptor or the human orexin-2 receptor, are grown in Iscove's modified DMEM containing 2 mM L-glutamine, […], 1% hypoxanthine-thymidine supplement, 100 U/ml penicillin, 100 ug/ml streptomycin and 10% heat-inactivated fetal calf serum (FCS). The cells are seeded at 20,000 cells/well into Becton-Dickinson black 384-well clear bottom sterile plates coated with poly-D-lysine. All reagents were from GIBCO-Invitrogen Corp. The seeded plates are incubated overnight at 37° C. and 5% CO2. Ala-6,12 human orexin-A as the agonist is prepared as a 1 mM stock solution in 1% bovine serum albumin (BSA) and diluted in assay buffer (HBSS containing 20 mM HEPES, 0.1% BSA and 2.5 mM probenecid, pH7.4) for use in the assay at a final concentration of 70 pM. Test compounds are prepared as 10 mM stock solution in DMSO, then diluted in 384-well plates, first in DMSO, then assay buffer. On the day of the assay, cells are washed 3 times with 100 ul assay buffer and then incubated for 60 min (37° C., 5% CO2) in 60 ul assay buffer containing 1 uM Fluo-4AM ester, 0.02% pluronic acid, and 1% BSA. The dye loading solution is then aspirated and cells are washed 3 times with 100 ul assay buffer. 30 ul of that same buffer is left in each well. Within the Fluorescent Imaging Plate Reader (FLIPR, Molecular Devices), test compounds are added to the plate in a volume of 25 ul, incubated for 5 min and finally 25 ul of agonist is added. Fluorescence is measured for each well at 1 second intervals for 5 minutes and the height of each fluorescence peak is compared to the height of the fluorescence peak induced by 70 pM Ala-6,12 orexin-A with buffer in place of antagonist. For each antagonist, IC50 value (the concentration of compound needed to inhibit 50% of the agonist response) is determined. Alternatively, compound potency can be assessed by a radioligand binding assay (described in Bergman et. al. Bioorg. Med. Chem. Lett. 2008, 18, 1425-1430) in which the inhibition constant (Ki) is determined in membranes prepared from CHO cells expressing either the OX1 or OX2 receptor. The intrinsic orexin receptor antagonist activity of a compound which may be used in the present invention may be determined by these assays.
Take “5-(3,5-chloromethylphenyl)-N-[(1,4-dimethyl-1,2,3,4-tetrahydroquinoxalin-6-yl)methyl]-2-(1-methyl-1H-pyrazol-4-yl)nicotinamide [2-14]”: the pKi (usually −log10 of the Ki, conventionally taken in molar units) is 9.82.
`COc1cc(CNC(=O)c2cc(-c3cc(C)cc(C)c3)cnc2-c2cnn(C)c2)cnc1OC` [1-13, N-[(5,6-dimethoxypyridin-3-yl)methyl]-5-(3,5-dimethylphenyl)-2-(1-methyl-1H-pyrazol-4-yl)nicotinamide]: the pKi was 8.32.
`Cc1[nH]c2cc(CNC(=O)c3cc(-c4cc(Cl)cc(Cl)c4)cnc3-c3cnn(C)c3)ccc2c1C` [1-14, 5-(3,5-dichlorophenyl)-N-[(2,3-dimethyl-1H-indol-6-yl)methyl]-2-(1-methyl-1H-pyrazol-4-yl)nicotinamide] gave a pKi of 10.15.
On to `COc1ccc(CNC(=O)c2cc(-c3cncc(C)c3)cnc2-c2cccc(F)c2)nc1OC` [3-7, N-[(5,6-dimethoxypyridin-2-yl)methyl]-6-(3-fluorophenyl)-5′-methyl-3,3′-bipyridine-5-carboxamide], for which the pKi is 9.49.
The molecule `COc1ccc(CNC(=O)c2cc(-c3cncc(Cl)c3)cnc2-c2ccccc2)nc1OC` [3-15, 5′-chloro-N-[(5,6-dimethoxypyridin-2-yl)methyl]-6-phenyl-3,3′-bipyridine-5-carboxamide] showed a pKi of 9.35.
Consider `COc1ccc(CNC(=O)c2cc(-c3cc(C)cc(Cl)c3)cnc2N2CCCC2)cc1OC` [4-5, 5-(3-chloro-5-methylphenyl)-N-(3,4-dimethoxybenzyl)-2-pyrrolidin-1-ylnicotinamide], for which the pKi is 9.35.
For the molecule `COc1ccc(CNC(=O)c2cc(-c3cncc(C)c3)cnc2N2CCOCC2)nc1OC` [4-13, N-[(5,6-dimethoxypyridin-2-yl)methyl]-5′-methyl-6-morpholin-4-yl-3,3′-bipyridine-5-carboxamide], the pKi is 8.96.
Take `COc1ccc(CNC(=O)c2cc(-c3cncc(C)c3)cnc2-n2ccc(C)n2)cc1Cl` [5-11, N-(3-chloro-4-methoxybenzyl)-5′-methyl-6-(3-methyl-1H-pyrazol-1-yl)-3,3′-bipyridine-5-carboxamide]: the pKi was 9.02.
`COc1ccc(CNC(=O)c2cc(-c3cncc(C)c3)cnc2C2CCCC2)cc1OC` [6-5, 6-cyclopentyl-N-(3,4-dimethoxybenzyl)-5-methyl-3,3′-bipyridine-5-carboxamide] showed a pKi of 8.64.
